Data reported in the supplement of paper PMC10307832.

Assays:
Assay in all cases: relative viability (nuclei count vs DMSO), 5 days (fraction); higher = more cells survive
[1] = compound: O=S(=O)(c1ccccc1)N(CC(F)(F)F)c1ccc(C(O)(C(F)(F)F)C(F)(F)F)cc1 + O=C(c1cc(Cc2n[nH]c(=O)c3ccccc23)ccc1F)N1CCN(C(=O)C2CC2)CC1 [Olaparib] (partner 8 µM)
Procedure, shortened: (§1)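 Each reported value is a median over duplicate plates. It expresses relative viability: treated-well nuclei count divided by vehicle-well nuclei count. Lung cancer cell lines in 1536-well plates were dosed by pin tool a day after seeding, alone with one drug or with a fixed anchor-drug dose plus five library-drug doses (not always all listed) in √10 steps, and nuclei were counted after 5 days.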

RO-3306 + Lapatinib = compound: C1=CC2=C(C=CC(=C2)C=C3C(=O)NC(=NCC4=CC=CS4)S3)N=C1 [RO-3306] + CS(=O)(=O)CCNCc1ccc(-c2ccc3ncnc(Nc4ccc(OCc5cccc(F)c5)c(Cl)c4)c3c2)o1 [Lapatinib] (partner 2 µM)
Procedure, shortened: as §1

[2] = compound: O=S(=O)(c1ccccc1)N(CC(F)(F)F)c1ccc(C(O)(C(F)(F)F)C(F)(F)F)cc1 + O=C(CCCCCCC(=O)Nc1ccccc1)NO [Vorinostat] (partner 1 µM)
Procedure, shortened: as §1

RO-3306 + Alpelisib = compound: C1=CC2=C(C=CC(=C2)C=C3C(=O)NC(=NCC4=CC=CS4)S3)N=C1 [RO-3306] + Cc1nc(NC(=O)N2CCC[C@H]2C(N)=O)sc1-c1ccnc(C(C)(C)C(F)(F)F)c1 [Alpelisib] (partner 2 µM)
Procedure, shortened: as §1

[3] = compound: O=S(=O)(c1ccccc1)N(CC(F)(F)F)c1ccc(C(O)(C(F)(F)F)C(F)(F)F)cc1 + N=C(N)NC(=N)NCCc1ccccc1 [Phenformin] (partner 250 µM)
Procedure, shortened: as §1

UMC-11
relative viability ([1]; first compound 0.8 µM): 0.355 | relative viability ([1]; first compound 2.53 µM): 0.459 | relative viability ([1]; first compound 8 µM): 0.379 | relative viability (RO-3306 + Lapatinib; first compound 0.01 µM): 1.06 | relative viability (RO-3306 + Lapatinib; first compound 0.03162 µM): 0.676 | relative viability (RO-3306 + Lapatinib; first compound 0.1 µM): 0.829 | relative viability (RO-3306 + Lapatinib; first compound 0.3162 µM): 0.971 | relative viability (RO-3306 + Lapatinib; first compound 1 µM): 0.671 | relative viability ([2]; first compound 0.8 µM): 0.381 | relative viability ([2]; first compound 2.53 µM): 0.357 | relative viability ([2]; first compound 8 µM): 0.396 | relative viability (RO-3306 + Alpelisib; first compound 0.01 µM): 1.03 | relative viability (RO-3306 + Alpelisib; first compound 0.03162 µM): 0.753 | relative viability (RO-3306 + Alpelisib; first compound 0.1 µM): 0.948 | relative viability (RO-3306 + Alpelisib; first compound 0.3162 µM): 1.18 | relative viability (RO-3306 + Alpelisib; first compound 1 µM): 1.12 | relative viability ([3]; first compound 0.8 µM): 0.315 | relative viability ([3]; first compound 2.53 µM): 0.295 | relative viability ([3]; first compound 8 µM): 0.315
